Where “and” joins values, the source holds several entries; their conditions need not be identical. Equal entries are not always repeated.
Columns and labels:
Type in all cases: in vivo
FAS = assay: DIN mouse model: hepatic FAS gene expression; parameters: key to 2^DDct: expression relative to vehicle group, normalized to 18S; conditions: 20 mg/kg group; for 18S: Gene Expression: FAS table, 18S reference; for 2^DDct / DDct / Dct / FAS: Gene Expression: FAS
Experimental: (§1) Gene expression analysis. Hepatic expression levels of genes involved in lipid metabolism (FAS, SREBP1, ACC1, SCD1), cholesterol metabolism (HMG-CoAR, LDLR), SREBP proteolysis (SCAP, INSIG1), ER stress (PERK), oxidative stress (NRF2), inflammation (MCP-1), and fibrosis (collagen 1α1) were quantified by RTqPCR. Expression level was normalized to 18S gene expression and relative expression to vehicle group was calculated with the […] method.
(§2) Male C57Bl/6J mice (8 weeks old) were housed in enriched ventilated cages (31×12.5×12.7 cm) throughout the experimental phase. Animals' cages litters were changed at least once a week. Animal were housed 5 per cage on inverted 12-hour light cycle (at 09:00 am lights off), 22±2° C. and 55±10% relative humidity. The acclimation period was 20 days. During the acclimation period, all mice were fed a standard diet (RM1 (E) 801492, SDS) and tap water ad libitum. After the acclimation period, mice were fed with the DIN diet (60% fat, cholesterol enriched) and fructose-enriched tap water ad libitum until the end of the experiment.
(§3) At 6 weeks of diet, mice were 4-hour fasted (09:00 am to 1:00 pm) and blood (150 μl/EDTA) was collected at 01:00 pm by retro-orbital bleeding under isoflurane anesthesia. Mice were then allocated in 2 homogenous groups (n=12/group) according to their plasma levels of ALT (average levels: 685U/L), AST (average levels: 627U/L) and HOMA-IR index (average value: 4.7), into 2 homogenous groups (see values at day 0 in Tables 15A and 15B ALT/AST and Tables 16A and 16B for HOMA-IR). Mice were then treated once daily by oral gavage with vehicle (Group 1) or Compound #37 at 20 mg/kg (Group 2) for 70 days.
(§4) Hepatic expression levels of genes involved in lipid (FAS, SREBP1, ACC1, SCD1), cholesterol metabolism (HMG-CoAR, LDLR), in SREBP proteolysis (SCAP, INSIG1), in ER stress (PERK), oxidative stress (NRF2), and inflammation (MCP-1) were not changed. However, expression of collagen 1α1, involved in liver fibrosis, was reduced by 66% in mice treated with Compound #37 (p<0.05 vs. vehicle).

[1] = tested on: 60% high fat Paigen diet induced NASH mouse model; assay: Short-term Paigen-diet NASH mouse model: NAFLD (NAS) score histopathology; parameters: NAS score: total / NAS score: steatose / NAS score: inflammation / NAS score: fibrosis / NAS score: hepatocyte ballooning: scale not given here
Experimental: To investigate whether Compound #37 prevents the development of pathology associated with NASH and steatosis in an acute exploratory disease model, a study was conducted using a diet-induced acute liver steatosis model in mice. […]
After acclimation, 8-week old male C57Bl/6J mice (Charles River) weighing about 25 g were randomized in 4 groups according their body weight and treated once daily around noon by oral gavage with vehicle, […] (2-hydroxypropyl)-β-cyclodextrin (HP-β-CD) (n=10); Group 2: Compound #37, 5 mg/kg (n=10) Group 3: Compound #37, 20 mg/kg (n=10) Group 4: Compound #37, 40 mg/kg (n=10). During the treatment period, body weight and food intake (measured over 24h) were measured 3 times per week and once a week, respectively. During the acclimation, all mice were fed a standard diet (Special Diets Services RM1 (E), product no. 801492) and tap water ad libitum. After the acclimation period, mice were fed until the end of the experiment with a 60% high fat Paigen diet (60 kcal % fat, 1.25% cholesterol, and 0.5% cholate; D11061901, Research Diet) and tap water ad libitum.
NAFLD score analysis. A 0.5 cm^3 piece of liver was fixed in 10% formalin for 48-72h, stored in ethanol 70° at 4° C., and processed for eosin/hematoxylin staining and NAFLD score analysis. One section (thickness 3-5 μm) per block was deposited on Superfrost+slides for hematoxylin-eosin staining. Individual slides having a single hepatic lobe section stained with H&E were digitized using a Nanozoomer from Hamamatsu. Sections were evaluated with knowledge of groups. Each section was evaluated and individually scored. A NAFLD scoring system (NAS) adapted from Kleiner et al. (Hepatology 41, 1313-21, 2005), Wu et al. (BMC Vet. Res. 10, 162, 2014), and Lee et al. (J. Lipid Res. 48, 1885-96, 2007). A total of four variables were qualitatively assessed and ranked with a score: (1) hepatocellular steatosis, (2) liver inflammation, (3) lobular fibrosis, and (4) hepatocyte ballooning.

Coll1a1 = assay: DIN mouse model: hepatic Coll1a1 (collagen 1α1) gene expression; parameters: mean liver collagen α1(I) mRNA: unit not given here; conditions: for Coll1a1 Dct / Coll1a1 2^DDct / Coll1a1 DDct / Coll1a1 (Ct): liver, 20 mg/kg group
Experimental: as §1, §2, §3, §4

[2] = 5 mg/kg, 21 days, group mean, n 10
[3] = 20 mg/kg, 21 days, group mean, n 6
[4] = 40 mg/kg, 9 days, group mean, n 4
[5] = individual animals, vs vehicle mean, 20 mg/kg

Structure (SMILES): CC(C)Cc1cc(-c2nc(-c3ccc(NS(=O)(=O)C(F)(F)F)cc3Cl)cs2)ccn1 [Compound 37, N-(3-chloro-4-(2-(2-isobutylpyridin-4-yl)thiazol-4-yl)phenyl)-1,1,1-trifluoromethanesulfonamide]
- 18S (FAS; individual animal, 20 mg/kg): 12.55 (2×) and 12.84 and 12.43 and 12.35 (2×) and 12.59 and 11.73 and 12.51 and 11.5 and 11.55
- 18S (FAS; mean, n 11): 12.3
- 2^DDct (FAS; individual animal, 20 mg/kg): 2.46 and 1.29 and 0.37 and 1.47 and 0.36 and 1.30 and 0.81 and 0.64 and 0.33 and 0.21 and 1.77
- DDct (FAS; individual animal, 20 mg/kg): −1.30 and −0.37 and 1.45 and −0.56 and 1.48 and −0.38 and 0.31 and 0.64 and 1.62 and 2.28 and −0.82
- Dct (FAS; individual animal, 20 mg/kg): 7.2 and 8.13 and 9.95 and 7.94 and 9.98 and 8.12 and 8.81 and 9.14 and 10.12 and 10.78 and 7.68
- FAS (FAS; individual animal, 20 mg/kg): 19.75 and 20.68 and 22.79 and 20.37 and 22.33 (2×) and 20.71 and 20.54 and 21.65 and 21.62 and 20.03
- 2^DDct (FAS; mean, n 11): 1
- DDct (FAS; mean, n 11): 0.40
- Dct (FAS; mean, n 11): 8.9
- FAS (FAS; mean, n 11): 21.2
- animals with Grade 1 hepatocellular steatosis ([1]; 5 mg/kg, 21 days): 9/10
- animals with grade-3 inflammation ([1]; 5 mg/kg, 21 days): 4/10
- animals with limited periportal fibrosis (mostly Grade 1) ([1]; 5 mg/kg, 21 days): 10/10
- NAS score: fibrosis [1, 2]: 1.2
- NAS score: hepatocyte ballooning [1, 2]: 0.3
- NAS score: inflammation [1, 2]: 2
- NAS score: steatose [1, 2]: 1.1
- NAS score: total [1, 2]: 4.6
- NAS score: total ([1]; 5 mg/kg, 21 days, individual animals): 4 (2×) and 5 (4×) and 3 (2×) and 6 (2×)
- animals with Grade 1 hepatocellular steatosis ([1]; 20 mg/kg, 21 days): 3/6
- animals with grade-3 inflammation ([1]; 20 mg/kg, 21 days): 1/6
- animals with limited periportal fibrosis (mostly Grade 1) ([1]; 20 mg/kg, 21 days): 3/6
- NAS score: fibrosis [1, 3]: 0.5
- NAS score: hepatocyte ballooning [1, 3]: 0
- NAS score: inflammation [1, 3]: 1.67
- NAS score: steatose [1, 3]: 0.5
- NAS score: total [1, 3]: 2.67
- NAS score: total ([1]; 20 mg/kg, 21 days, individual animals): 2 (2×) and 3 (2×) and 5 and 1
- NAS score: fibrosis [1, 4]: 0
- NAS score: hepatocyte ballooning [1, 4]: 1
- NAS score: inflammation [1, 4]: 0
- NAS score: steatose [1, 4]: 2
- NAS score: total [1, 4]: 3
- NAS score: total ([1]; 40 mg/kg, 9 days, individual animals): 3
- expression of collagen 1α1 reduction (Coll1a1; 20 mg/kg, 70 days, p<0.05 vs. vehicle): 66%
- mean liver collagen α1(I) mRNA (Coll1a1; 20 mg/kg/day, 10 weeks, vehicle 1.45%, p<0.05): 0.49
- Coll1a1 Dct (Coll1a1; individual animals, normalised to 18S, 20 mg/kg): 15 and 14.23 and 17.82 and 16.38 and 15.37 and 15.65 and 15.13 and 16.1 and 16.14 and 17.48 and 12.82
- Coll1a1 2^DDct (Coll1a1; [5]): 0.48 and 0.82 and 0.07 and 0.19 and 0.37 and 0.31 and 0.44 and 0.23 and 0.22 and 0.09 and 2.19
- Coll1a1 DDct (Coll1a1; [5]): 1.05 and 0.28 and 3.87 and 2.43 and 1.42 and 1.7 and 1.18 and 2.15 and 2.19 and 3.53 and −1.13
- Coll1a1 (Ct) (Coll1a1; individual animals, 20 mg/kg): 27.55 and 26.78 and 30.66 and 28.81 and 27.72 and 28.24 and 26.86 and 28.61 and 27.64 and 29.03 and 25.17
- Coll1a1 2^DDct (Coll1a1; mean, n 11): 0.49
- Coll1a1 (Ct) (Coll1a1; mean, n 11): 27.9
- Coll1a1 DDct (Coll1a1; mean, n 11): 1.70
- Coll1a1 Dct (Coll1a1; mean, n 11): 15.6

Reference: US10183015B2, “Heterocyclic compounds and methods of use” (Medivation Technologies LLC, priority 2015, dated 2019)
